# Key:
# Assay in all cases: KINOMEscan competition binding
# Details in all cases: compound 10.0 µM
# RIOK1 (human) = RIOK1 (human) (UniProt Q9BRS2)
# [1] = system: ABL1 (human), P00519 [Y253F]
# EPHA3 (human) = EPHA3 (human) (UniProt P29320)
# NLK (human) = NLK (human) (UniProt Q9UBE8)
# PIP5K1C (human) = PIP5K1C (human) (UniProt O60331)
# ACVR1B (human) = ACVR1B (human) (UniProt P36896)
# PIK3CD (human) = PIK3CD (human) (UniProt O00329)
# CLK2 (human) = CLK2 (human) (UniProt P49760)
# CDC2L2 (human) = CDC2L2 (human) (UniProt Q9UQ88)
# MYLK (human) = MYLK (human) (UniProt Q15746)
# CSNK1A1L (human) = CSNK1A1L (human) (UniProt Q8N752)
# CDKL5 (human) = CDKL5 (human) (UniProt O76039)
# SLK (human) = SLK (human) (UniProt Q9H2G2)
# MAPK7 (human) = MAPK7 (human) (UniProt Q13164)
# PLK2 (human) = PLK2 (human) (UniProt Q9NYY3)
# FLT1 (human) = FLT1 (human) (UniProt P17948)
# GRK4 (human) = GRK4 (human) (UniProt P32298)
# EPHB3 (human) = EPHB3 (human) (UniProt P54753)
# IKBKB (human) = IKBKB (human) (UniProt O14920)
# STK25 (human) = STK25 (human) (UniProt O00506)
# MAP4K5 (human) = MAP4K5 (human) (UniProt Q9Y4K4)
# MAPKAPK2 (human) = MAPKAPK2 (human) (UniProt P49137)
# RPS6KA1 KD2 (human) = RPS6KA1 KD2 (human) (UniProt Q15418)
# MARK4 (human) = MARK4 (human) (UniProt Q96L34)
# AKT1 (human) = AKT1 (human) (UniProt P31749)
# EPHA4 (human) = EPHA4 (human) (UniProt P54764)
# TAOK1 (human) = TAOK1 (human) (UniProt Q7L7X3)
# CDK15 (human) = CDK15 (human) (UniProt Q96Q40)
# MAP3K15 (human) = MAP3K15 (human) (UniProt Q6ZN16)
# ERBB3 (human) = ERBB3 (human) (UniProt P21860)
# CHEK1 (human) = CHEK1 (human) (UniProt O14757)
# FGFR3 (human) = FGFR3 (human) (UniProt P22607)
# DMPK (human) = DMPK (human) (UniProt Q09013)
# STK35 (human) = STK35 (human) (UniProt Q8TDR2)
# [2] = system: RET (human), P07949 [M918T]
# NTRK3 (human) = NTRK3 (human) (UniProt Q16288)
# SYK (human) = SYK (human) (UniProt P43405)
# MAP3K13 (human) = MAP3K13 (human) (UniProt O43283)
# CDC42BPG (human) = CDC42BPG (human) (UniProt Q6DT37)
# MAP3K2 (human) = MAP3K2 (human) (UniProt Q9Y2U5)
# Sequence of RPS6KA1 KD2 (human) (Q15418 whole entry, looked up): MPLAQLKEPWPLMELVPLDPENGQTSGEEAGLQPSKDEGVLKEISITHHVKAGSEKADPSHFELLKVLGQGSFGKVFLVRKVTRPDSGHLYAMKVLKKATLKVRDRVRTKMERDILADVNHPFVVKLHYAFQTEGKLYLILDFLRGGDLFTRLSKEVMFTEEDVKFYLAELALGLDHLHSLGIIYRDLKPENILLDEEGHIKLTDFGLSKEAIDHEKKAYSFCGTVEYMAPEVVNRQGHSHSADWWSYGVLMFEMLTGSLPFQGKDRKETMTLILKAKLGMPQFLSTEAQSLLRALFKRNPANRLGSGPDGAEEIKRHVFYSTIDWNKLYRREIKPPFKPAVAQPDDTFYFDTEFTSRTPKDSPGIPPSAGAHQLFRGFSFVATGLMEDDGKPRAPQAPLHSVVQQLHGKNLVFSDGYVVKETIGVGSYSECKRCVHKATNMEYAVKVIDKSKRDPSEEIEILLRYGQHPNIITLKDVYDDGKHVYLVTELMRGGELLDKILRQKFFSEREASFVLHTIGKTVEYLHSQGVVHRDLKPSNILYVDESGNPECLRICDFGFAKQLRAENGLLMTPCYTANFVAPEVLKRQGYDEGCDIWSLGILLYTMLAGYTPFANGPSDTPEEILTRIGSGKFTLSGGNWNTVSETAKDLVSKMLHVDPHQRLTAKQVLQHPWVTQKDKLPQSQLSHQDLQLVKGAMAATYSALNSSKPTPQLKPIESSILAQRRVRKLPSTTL
# Sequence of DMPK (human) (Q09013 whole entry, looked up): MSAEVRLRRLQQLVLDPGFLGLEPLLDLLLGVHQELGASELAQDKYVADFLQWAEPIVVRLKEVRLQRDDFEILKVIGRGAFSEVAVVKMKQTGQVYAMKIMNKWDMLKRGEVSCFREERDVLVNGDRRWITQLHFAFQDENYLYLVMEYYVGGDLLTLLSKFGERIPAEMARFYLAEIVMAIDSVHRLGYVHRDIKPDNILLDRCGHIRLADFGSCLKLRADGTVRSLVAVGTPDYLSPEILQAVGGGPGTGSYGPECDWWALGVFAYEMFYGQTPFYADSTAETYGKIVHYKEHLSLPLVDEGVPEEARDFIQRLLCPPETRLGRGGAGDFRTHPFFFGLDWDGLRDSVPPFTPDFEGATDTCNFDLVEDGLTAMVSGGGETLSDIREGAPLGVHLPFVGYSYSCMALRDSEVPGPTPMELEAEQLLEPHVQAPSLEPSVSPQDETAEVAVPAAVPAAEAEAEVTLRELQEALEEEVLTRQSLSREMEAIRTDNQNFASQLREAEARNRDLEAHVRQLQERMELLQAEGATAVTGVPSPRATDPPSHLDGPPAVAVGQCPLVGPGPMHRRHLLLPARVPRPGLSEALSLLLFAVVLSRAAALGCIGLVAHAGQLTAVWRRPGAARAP
# Sequence of AKT1 (human) (P31749 whole entry, looked up): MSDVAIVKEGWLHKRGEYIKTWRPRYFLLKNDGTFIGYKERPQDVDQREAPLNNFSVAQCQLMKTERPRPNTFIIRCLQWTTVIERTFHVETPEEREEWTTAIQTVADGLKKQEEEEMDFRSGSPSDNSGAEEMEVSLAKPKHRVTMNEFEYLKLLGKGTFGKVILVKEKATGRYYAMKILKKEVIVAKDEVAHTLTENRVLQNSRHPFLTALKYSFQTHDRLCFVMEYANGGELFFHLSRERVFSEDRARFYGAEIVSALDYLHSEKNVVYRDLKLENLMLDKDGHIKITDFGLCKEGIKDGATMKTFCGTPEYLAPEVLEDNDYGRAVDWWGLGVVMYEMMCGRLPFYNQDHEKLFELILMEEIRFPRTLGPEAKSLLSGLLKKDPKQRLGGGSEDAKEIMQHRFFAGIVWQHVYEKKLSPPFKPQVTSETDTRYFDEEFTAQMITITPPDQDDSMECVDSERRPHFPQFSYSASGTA
# Sequence of RET (human), P07949 [M918T] (P07949 whole entry M918T, looked up): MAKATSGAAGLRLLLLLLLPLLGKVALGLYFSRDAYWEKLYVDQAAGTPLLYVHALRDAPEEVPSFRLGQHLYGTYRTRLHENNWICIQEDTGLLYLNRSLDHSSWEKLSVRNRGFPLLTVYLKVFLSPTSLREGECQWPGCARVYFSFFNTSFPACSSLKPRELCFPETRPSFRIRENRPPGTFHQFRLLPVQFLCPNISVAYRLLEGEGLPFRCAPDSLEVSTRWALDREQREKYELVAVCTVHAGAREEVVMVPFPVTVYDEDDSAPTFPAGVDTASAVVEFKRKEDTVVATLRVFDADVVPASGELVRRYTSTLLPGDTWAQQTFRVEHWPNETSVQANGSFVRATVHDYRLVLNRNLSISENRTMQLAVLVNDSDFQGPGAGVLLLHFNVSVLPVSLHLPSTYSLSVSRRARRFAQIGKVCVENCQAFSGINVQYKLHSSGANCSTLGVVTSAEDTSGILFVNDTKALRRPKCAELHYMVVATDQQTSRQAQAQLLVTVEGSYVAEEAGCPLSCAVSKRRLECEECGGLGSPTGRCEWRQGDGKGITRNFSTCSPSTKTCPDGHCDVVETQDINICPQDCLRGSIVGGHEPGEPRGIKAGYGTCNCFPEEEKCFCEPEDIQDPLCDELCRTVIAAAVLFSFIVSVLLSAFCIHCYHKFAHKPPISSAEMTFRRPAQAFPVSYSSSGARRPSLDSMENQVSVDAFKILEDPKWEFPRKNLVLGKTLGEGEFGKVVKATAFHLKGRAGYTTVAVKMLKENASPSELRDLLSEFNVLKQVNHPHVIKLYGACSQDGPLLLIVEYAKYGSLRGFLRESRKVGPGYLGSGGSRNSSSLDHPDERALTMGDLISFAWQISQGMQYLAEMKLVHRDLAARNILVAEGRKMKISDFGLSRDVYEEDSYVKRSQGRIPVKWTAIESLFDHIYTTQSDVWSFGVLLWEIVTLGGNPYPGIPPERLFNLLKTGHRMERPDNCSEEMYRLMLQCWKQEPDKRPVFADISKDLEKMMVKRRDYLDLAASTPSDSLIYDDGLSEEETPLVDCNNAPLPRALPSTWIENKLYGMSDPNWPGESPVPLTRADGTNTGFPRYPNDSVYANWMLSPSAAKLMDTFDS
# Sequence of CDC2L2 (human) (Q9UQ88 whole entry, looked up): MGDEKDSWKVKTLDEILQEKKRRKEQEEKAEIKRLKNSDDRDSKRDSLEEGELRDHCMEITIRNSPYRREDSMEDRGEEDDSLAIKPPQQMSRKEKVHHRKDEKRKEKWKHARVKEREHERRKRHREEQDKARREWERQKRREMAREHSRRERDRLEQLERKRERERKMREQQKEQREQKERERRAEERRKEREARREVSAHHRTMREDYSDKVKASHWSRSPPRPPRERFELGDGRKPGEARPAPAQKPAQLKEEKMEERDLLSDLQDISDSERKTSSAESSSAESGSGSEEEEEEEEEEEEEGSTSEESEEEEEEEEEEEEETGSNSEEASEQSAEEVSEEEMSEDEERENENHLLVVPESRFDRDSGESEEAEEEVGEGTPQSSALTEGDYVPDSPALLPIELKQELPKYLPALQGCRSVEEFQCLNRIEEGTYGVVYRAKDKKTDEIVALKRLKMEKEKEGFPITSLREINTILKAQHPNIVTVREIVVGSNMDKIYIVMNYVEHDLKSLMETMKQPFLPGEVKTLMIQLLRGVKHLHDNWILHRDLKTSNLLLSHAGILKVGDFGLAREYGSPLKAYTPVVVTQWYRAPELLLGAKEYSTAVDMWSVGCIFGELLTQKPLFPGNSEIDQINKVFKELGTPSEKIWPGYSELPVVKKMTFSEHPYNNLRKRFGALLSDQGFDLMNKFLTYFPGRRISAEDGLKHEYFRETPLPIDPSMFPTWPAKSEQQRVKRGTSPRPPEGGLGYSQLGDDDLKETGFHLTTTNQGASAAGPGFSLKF
# Sequence of MAP4K5 (human) (Q9Y4K4 whole entry, looked up): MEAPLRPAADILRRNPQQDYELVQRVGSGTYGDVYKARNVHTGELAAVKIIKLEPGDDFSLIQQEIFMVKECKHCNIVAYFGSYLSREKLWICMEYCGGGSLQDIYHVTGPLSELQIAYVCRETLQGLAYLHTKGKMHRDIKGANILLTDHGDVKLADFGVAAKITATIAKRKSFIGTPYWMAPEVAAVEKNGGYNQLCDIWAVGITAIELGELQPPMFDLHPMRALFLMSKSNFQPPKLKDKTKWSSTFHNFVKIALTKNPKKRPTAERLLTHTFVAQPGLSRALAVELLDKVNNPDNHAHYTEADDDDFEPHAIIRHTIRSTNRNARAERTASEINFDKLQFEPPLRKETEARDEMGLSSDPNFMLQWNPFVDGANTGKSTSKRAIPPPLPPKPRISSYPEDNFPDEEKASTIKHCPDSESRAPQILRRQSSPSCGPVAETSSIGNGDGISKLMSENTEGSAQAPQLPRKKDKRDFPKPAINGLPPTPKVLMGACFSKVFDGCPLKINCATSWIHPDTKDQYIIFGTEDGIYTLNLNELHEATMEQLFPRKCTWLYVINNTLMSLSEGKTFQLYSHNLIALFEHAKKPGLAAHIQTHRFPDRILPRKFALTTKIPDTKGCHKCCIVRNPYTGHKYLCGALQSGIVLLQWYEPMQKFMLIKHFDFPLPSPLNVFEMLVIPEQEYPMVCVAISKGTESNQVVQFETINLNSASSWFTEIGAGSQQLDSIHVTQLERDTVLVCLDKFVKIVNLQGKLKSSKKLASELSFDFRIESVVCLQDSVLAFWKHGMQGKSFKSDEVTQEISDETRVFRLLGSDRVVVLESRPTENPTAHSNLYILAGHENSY
# Sequence of CDK15 (human) (Q96Q40 whole entry, looked up): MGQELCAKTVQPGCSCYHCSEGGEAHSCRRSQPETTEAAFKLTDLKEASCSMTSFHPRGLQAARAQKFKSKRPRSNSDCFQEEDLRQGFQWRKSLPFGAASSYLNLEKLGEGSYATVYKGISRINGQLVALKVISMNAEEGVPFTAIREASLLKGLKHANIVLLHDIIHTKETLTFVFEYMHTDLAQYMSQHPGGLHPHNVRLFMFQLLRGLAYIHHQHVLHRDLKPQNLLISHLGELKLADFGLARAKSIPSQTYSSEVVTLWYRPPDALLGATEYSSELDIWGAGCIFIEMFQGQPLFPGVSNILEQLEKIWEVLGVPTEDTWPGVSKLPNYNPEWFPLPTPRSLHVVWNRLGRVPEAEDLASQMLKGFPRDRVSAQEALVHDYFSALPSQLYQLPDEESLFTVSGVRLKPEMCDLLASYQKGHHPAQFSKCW
Structure (SMILES),"kinase still bound, per cent of control (RIOK1 (human)) [%]","kinase still bound, per cent of control [1] [%]","kinase still bound, per cent of control (EPHA3 (human)) [%]","kinase still bound, per cent of control (NLK (human)) [%]","kinase still bound, per cent of control (PIP5K1C (human)) [%]","kinase still bound, per cent of control (ACVR1B (human)) [%]","kinase still bound, per cent of control (PIK3CD (human)) [%]","kinase still bound, per cent of control (CLK2 (human)) [%]","kinase still bound, per cent of control (CDC2L2 (human)) [%]","kinase still bound, per cent of control (MYLK (human)) [%]","kinase still bound, per cent of control (CSNK1A1L (human)) [%]","kinase still bound, per cent of control (CDKL5 (human)) [%]","kinase still bound, per cent of control (SLK (human)) [%]","kinase still bound, per cent of control (MAPK7 (human)) [%]","kinase still bound, per cent of control (PLK2 (human)) [%]","kinase still bound, per cent of control (FLT1 (human)) [%]","kinase still bound, per cent of control (GRK4 (human)) [%]","kinase still bound, per cent of control (EPHB3 (human)) [%]","kinase still bound, per cent of control (IKBKB (human)) [%]","kinase still bound, per cent of control (STK25 (human)) [%]",also measured
O=c1cc(N2CCOCC2)oc2c(-c3cccc4c3sc3ccccc34)cccc12,100,100,91,88,61,91,3.3,65,100,91,92,100,100,100,100,97,100,100,100,59,"kinase still bound, per cent of control (MAP4K5 (human)): 89%; kinase still bound, per cent of control (MAPKAPK2 (human)): 100%; kinase still bound, per cent of control (RPS6KA1 KD2 (human)): 75%; kinase still bound, per cent of control (MARK4 (human)): 100%; kinase still bound, per cent of control (AKT1 (human)): 89%; kinase still bound, per cent of control (EPHA4 (human)): 82%; kinase still bound, per cent of control (TAOK1 (human)): 100%; kinase still bound, per cent of control (CDK15 (human)): 85%; kinase still bound, per cent of control (MAP3K15 (human)): 100%; kinase still bound, per cent of control (ERBB3 (human)): 72%; kinase still bound, per cent of control (CHEK1 (human)): 100%; kinase still bound, per cent of control (FGFR3 (human)): 80%; kinase still bound, per cent of control (DMPK (human)): 89%; kinase still bound, per cent of control (STK35 (human)): 80%; kinase still bound, per cent of control [2]: 98%; kinase still bound, per cent of control (NTRK3 (human)): 74%; kinase still bound, per cent of control (SYK (human)): 100%; kinase still bound, per cent of control (MAP3K13 (human)): 100%; kinase still bound, per cent of control (CDC42BPG (human)): 100%; kinase still bound, per cent of control (MAP3K2 (human)): 100%"
N#CCNC(=O)c1ccc(-c2ccnc(Nc3ccc(N4CCOCC4)cc3)n2)cc1,1,61,69,86,54,38,45,7.4,58,100,100,65,100,48,51,55,10,100,0.15,71,"kinase still bound, per cent of control (MAP4K5 (human)): 100%; kinase still bound, per cent of control (MAPKAPK2 (human)): 100%; kinase still bound, per cent of control (RPS6KA1 KD2 (human)): 80%; kinase still bound, per cent of control (MARK4 (human)): 42%; kinase still bound, per cent of control (AKT1 (human)): 100%; kinase still bound, per cent of control (EPHA4 (human)): 100%; kinase still bound, per cent of control (TAOK1 (human)): 32%; kinase still bound, per cent of control (CDK15 (human)): 58%; kinase still bound, per cent of control (MAP3K15 (human)): 68%; kinase still bound, per cent of control (ERBB3 (human)): 100%; kinase still bound, per cent of control (CHEK1 (human)): 100%; kinase still bound, per cent of control (FGFR3 (human)): 86%; kinase still bound, per cent of control (DMPK (human)): 37%; kinase still bound, per cent of control (STK35 (human)): 57%; kinase still bound, per cent of control [2]: 78%; kinase still bound, per cent of control (NTRK3 (human)): 63%; kinase still bound, per cent of control (SYK (human)): 32%; kinase still bound, per cent of control (MAP3K13 (human)): 77%; kinase still bound, per cent of control (CDC42BPG (human)): 96%; kinase still bound, per cent of control (MAP3K2 (human)): 100%"
NC(=O)Nc1cc(-c2cccc(F)c2)sc1C(=O)N[C@@H]1CCCNC1,0.4,0,0.2,81,27,28,100,0.65,100,3.3,2.4,100,0.05,80,40,0.1,0,95,2.5,0,"kinase still bound, per cent of control (MAP4K5 (human)): 0.4%; kinase still bound, per cent of control (MAPKAPK2 (human)): 0%; kinase still bound, per cent of control (RPS6KA1 KD2 (human)): 1.4%; kinase still bound, per cent of control (MARK4 (human)): 2.2%; kinase still bound, per cent of control (AKT1 (human)): 3.2%; kinase still bound, per cent of control (EPHA4 (human)): 3.4%; kinase still bound, per cent of control (TAOK1 (human)): 4.8%; kinase still bound, per cent of control (CDK15 (human)): 73%; kinase still bound, per cent of control (MAP3K15 (human)): 28%; kinase still bound, per cent of control (ERBB3 (human)): 28%; kinase still bound, per cent of control (CHEK1 (human)): 0.25%; kinase still bound, per cent of control (FGFR3 (human)): 16%; kinase still bound, per cent of control (DMPK (human)): 12%; kinase still bound, per cent of control (STK35 (human)): 1.1%; kinase still bound, per cent of control [2]: 0%; kinase still bound, per cent of control (NTRK3 (human)): 0.2%; kinase still bound, per cent of control (SYK (human)): 0.05%; kinase still bound, per cent of control (MAP3K13 (human)): 7%; kinase still bound, per cent of control (CDC42BPG (human)): 72%; kinase still bound, per cent of control (MAP3K2 (human)): 0%"

# From the kinase profiling compilation of Christmann-Franck et al. (2016)
